Assay results published in patent US9045501B2, “5-HT3 receptor modulators, methods of making, and use thereof” (Albany Molecular Research, Inc., priority 2009, dated 2015).

Assays:
human 5-HT3 receptor = human 5-HT3 receptor (Homo sapiens (Human), UniProt P46098); test: Radioligand binding assay (SPA format), affinity for the human 5-HT3 receptor; conditions: [9-methyl-3H]BRL-43694 10 nM, human 5-HT3 receptor membranes, Cheng Prusoff; read-out: h5-HT3A Ki
Protocol: The relative affinity of the various compounds for the human 5-HT3 receptor was measured in a radioligand binding assay, using a scintillation proximity assay (SPA) format. Test compounds were dissolved to 10 mM in 100% DMSO, then serially diluted at 10× assay concentrations in 100% DMSO in 96-well polypropylene plates and further diluted to 4× assay concentrations with the assay buffer. Samples were incubated in 50 mM Tris-HCl, pH 7.5, 3 mM MgCl2, 1 mM EDTA and 10% DMSO with 10 nM [9-methyl-^3H]BRL-43694 (Perkin Elmer), 3 μg of human 5-HT3 receptor membranes (Perkin Elmer) and 0.5 mg/mL SPA beads (WGA PVT, Amersham Biosciences) in a final volume of 0.2 mL. Binding reactions were set up in wells of PicoPlates-96 (Perkin Elmer) by adding consecutively 50 μL of each competing compound or buffer, SPA beads, the radioligand and 5-HT3 receptor membranes. After an overnight incubation at room temperature on a Nutator mixer, plates were centrifuged for 15 min at 1,500 rpm, followed by incubation in the dark for 30 min. Radioactivity was counted in the TopCount microplate counter (Perkin Elmer) for 5 min. Total binding control contained compound dilution buffer only; nonspecific binding was determined in the presence of 30 μM MDL-72222. Specific binding was determined by subtracting nonspecific binding from total binding. All experiments were performed in duplicate using ten concentrations of competing ligand, with ondansetron included as a control in every run. IC50 values were determined from specific binding data using XLfit4.1 curve fitting software from IDBS Ltd. The inhibition constant (Ki) was calculated from the Cheng Prusoff equation: (Ki=IC50/(1+(L/KD)), where L=concentration of radioligand in the assay, and KD=affinity of the radioligand for the receptor.

h5-HT3A receptor = h5-HT3A receptor (Homo sapiens (Human), UniProt P46098); test: Agonist activity at recombinant human 5-HT3A receptors, [Ca2+]i in HEK293 cells; format: cell-based; conditions: at 1 μM, normalized to the response of 5-HT (5-HT response = 100% at 3 μM); NR = no response
Sequence of h5-HT3A receptor (P46098 24-478): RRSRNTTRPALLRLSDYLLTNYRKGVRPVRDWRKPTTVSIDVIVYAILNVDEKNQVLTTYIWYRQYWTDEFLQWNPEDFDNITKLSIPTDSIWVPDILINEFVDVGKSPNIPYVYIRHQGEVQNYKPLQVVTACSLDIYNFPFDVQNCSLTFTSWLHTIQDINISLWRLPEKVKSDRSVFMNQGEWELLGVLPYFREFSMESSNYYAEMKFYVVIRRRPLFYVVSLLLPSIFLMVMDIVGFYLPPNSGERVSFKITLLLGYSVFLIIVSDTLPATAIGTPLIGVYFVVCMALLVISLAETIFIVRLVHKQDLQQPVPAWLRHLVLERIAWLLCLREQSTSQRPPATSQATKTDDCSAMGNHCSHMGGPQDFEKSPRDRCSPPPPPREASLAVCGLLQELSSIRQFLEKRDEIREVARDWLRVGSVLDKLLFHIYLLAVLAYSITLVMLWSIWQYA
Protocol: Human embryonic kidney (HEK293) cells expressing the h5-HT3A receptor subunit were seeded directly into poly-D-lysine coated, black-walled, clear bottomed, 96 well plates with approximately 1×10^5 cells per well. After 48 hrs incubation in DMEM growth media (100 μL), cells were washed twice (each 200 μL) in Hank's balanced salt solution (Invitrogen) before incubation (1 hr) with Fluo-4 acetoxymethyl (AM) ester (100 μL, 2.5 μM; Molecular Probes). Cells were washed twice (each 200 μL) in Hank's balanced salt solution and incubated for a further 30 min in Hank's balanced salt solution (100 μL) prior to assay (25° C.). Alteration in [Ca^2+]i was measured (relative fluorescence units [RFU]) using a Flexstation (excitation 488 nm and emission 515 nm; frequency of recording 3 sec). After recording for at least 80 sec, vehicle (Hank's balanced salt solution) or drug was automatically administered to the well (50 μL). Baseline was calculated from the 5 data points immediately prior to the first drug administration and the maximum response was that achieved over the 240 sec following drug administration. In all experiments the muscarinic receptor agonist carbachol (1 mM) was added 240 sec after the test drug administration.

5-HT3 receptors = 5-HT3 receptors (Mus musculus (Mouse), UniProt P23979); test: von Bezold-Jarisch model in vivo: inhibition of 5-HT induced bradycardia; conditions: 3 mg/kg oral, 60 min before 5-HT 0.1 mg/kg IV, anesthetized male ICR mice; highest oral dose tested
Sequence of 5-HT3 receptors (P23979 24-489): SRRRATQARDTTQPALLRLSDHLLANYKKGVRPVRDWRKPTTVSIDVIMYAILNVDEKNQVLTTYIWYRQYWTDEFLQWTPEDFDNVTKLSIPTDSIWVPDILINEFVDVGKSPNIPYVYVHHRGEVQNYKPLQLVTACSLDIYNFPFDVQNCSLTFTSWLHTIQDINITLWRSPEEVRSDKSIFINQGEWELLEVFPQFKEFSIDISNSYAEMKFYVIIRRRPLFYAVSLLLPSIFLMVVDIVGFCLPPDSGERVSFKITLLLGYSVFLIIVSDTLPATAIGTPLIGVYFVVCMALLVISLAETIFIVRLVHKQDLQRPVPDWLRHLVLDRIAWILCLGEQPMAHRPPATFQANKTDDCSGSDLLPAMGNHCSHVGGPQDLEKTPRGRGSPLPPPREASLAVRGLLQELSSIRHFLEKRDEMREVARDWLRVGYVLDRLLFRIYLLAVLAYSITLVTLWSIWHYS
Protocol: This is a well characterized and widely used model to assess 5-HT3 receptor function in vivo (King et al., 5-Hydroxtryptamine-3 Receptor Antagonists, CRC Press, pp. 74-75 (1993), which is hereby incorporated by reference in its entirety). Certain compounds (Table 1) were evaluated for their ability to inhibit serotonin induced bradycardia in vivo in the mouse (Saxena et al., Arch. Int. Pharmacodyn., 277:235-252 (1985), which is hereby incorporated by reference in its entirety). Test substances and vehicle [2% Tween 80] were each administered orally to a group of 5 male ICR mice each weighing 24±2 g. A dosing volume of 10 mL/kg was used. Sixty minutes later, 5-HT (0.1 mg/kg IV)-induced bradycardia was recorded in urethane (2250 mg/kg IP, given 10 minutes before 5-HT)-anesthetized animals.

Sequence of human 5-HT3 receptor (P46098 24-478): as the sequence (P46098 24-478) above

SMILES	Ki (human 5-HT3 receptor)	HEK293 h5-HT3A % agonist response (h5-HT3A receptor)	Inhibition of 5-HT Induced Bradycardia in Mice (5-HT3 receptors)
Cc1cn2c3c(cccc13)C(=O)N([C@@H]1CN3CCC1CC3)CC2 [Example 3, (S)-7-methyl-2-(quinuclidin-3-yl)-3,4-dihydro-[1,4]diazepino[6,7,1-hi]indol-1(2H)-one]	5 nM	13%	
O=C1c2cccc3[nH]c(=O)n(c23)CCN1[C@@H]1CN2CCC1CC2 [Example 25, 6-((S)-quinuclidin-3-yl)-5,6-dihydroimidazo[4,5,1-jk][1,4]benzodiazepine-2,7(1H, 4H)-dione]	7 nM	83%	
O=C1c2cccc3ccn(c23)CCN1[C@@H]1CN2CCC1CC2 [Example 2, (S)-2-(quinuclidin-3-yl)-3,4-dihydro-[1,4]diazepino[6,7,1-hi]indol-1(2H)-one]	4 nM	7%	
O=C1c2cccc3cnn(c23)CCN1[C@@H]1CN2CCC1CC2 [Example 7, (S)-7-(quinuclidin-3-yl)-8,9-dihydro-[1,4]diazepino[6,7,1-hi]indazol-6(7H)-one]	8 nM	19%	77% @ 3 mg/kg
O=C1c2cccc3[nH]nc(c23)CN1CC12CCN(CC1)CC2 [Example 29, 4-(quinuclidin-4-ylmethyl)-3,4-dihydropyrazolo[3,4,5-de]isoquinolin-5(1H)-one]	2 nM	1%	87% @ 3 mg/kg
